The results in this text go back to US7851510B2, “Gossypol derivatives, production method thereof and uses of same” (Centre National de la Recherche Scientifique (C.N.R.S.), priority 2004, dated 2010).

Test in all cases: Protein kinase activity in the presence of compound
Common to all, as to type: biochemical

The test system of assay [1] is AMPK. The conditions noted are these: 10 μM compound; percentage of the activity measured in the absence of inhibitors. The procedure:
(§1) The action of the compound of formula (14) was tested on a selection of 29 different protein kinases. The activity of these enzymes was measured in the presence of 10 μM of compound, according to the general methodology described by Bain et al. (2003) Biochem. J. 371:199-204 and Davies et al. (2000) Biochem. J. 351:95-105.
(§2) Residual enzyme activity of protein kinases in the presence of inhibitor compounds at the concentration given (expressed as a percentage of the activity measured in the absence of inhibitors). The results obtained for gossypol and gossypolone are given by way of comparison.

The target in assay [2] is CDK2/cyclin A (Homo sapiens, UniProt P24941). The conditions noted are these: read-out: Residual activity CDK2/cyclin A. The method, then: as §1, §2
The target in assay [3] is T1, CHK1 (Homo sapiens, UniProt O14757).
T1 sequence (O14757 1-476): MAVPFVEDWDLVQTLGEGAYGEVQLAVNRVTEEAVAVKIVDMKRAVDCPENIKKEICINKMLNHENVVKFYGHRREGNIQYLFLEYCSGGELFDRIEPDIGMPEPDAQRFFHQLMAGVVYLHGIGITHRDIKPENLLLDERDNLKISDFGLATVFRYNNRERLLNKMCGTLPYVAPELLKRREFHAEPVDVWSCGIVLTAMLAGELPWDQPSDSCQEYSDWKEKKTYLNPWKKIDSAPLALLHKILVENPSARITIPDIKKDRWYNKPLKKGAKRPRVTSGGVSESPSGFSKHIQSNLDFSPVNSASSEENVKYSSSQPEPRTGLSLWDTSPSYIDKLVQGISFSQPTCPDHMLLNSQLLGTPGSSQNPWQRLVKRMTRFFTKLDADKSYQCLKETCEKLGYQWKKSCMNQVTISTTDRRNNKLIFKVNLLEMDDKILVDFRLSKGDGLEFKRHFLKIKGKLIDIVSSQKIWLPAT
The conditions noted are these: read-out: Residual activity CHK1. The procedure: as §1, §2

Assay [4] has as its system CK1. Conditions: 10 μM compound; percentage of the activity measured in the absence of inhibitors. The method, then:
as §1, §2

For assay [5], the target named is CK2 (Homo sapiens, UniProt P68400). Conditions: read-out: Residual activity CK2. The procedure: as §1, §2
The target of assay [6] is CSK (Homo sapiens, UniProt P41240). Conditions: read-out: Residual activity CSK. The procedure: as §1, §2
Assay [7] has as its target DYRK1a (Homo sapiens, UniProt Q13627). The conditions noted are these: read-out: Residual activity DYRK1a. The method, then:
as §1, §2

The target of assay [8] is GSK3b (Homo sapiens, UniProt P49841). Conditions: read-out: Residual activity GSK3b. The procedure:
as §1, §2

Assay [9] has as its target JNK/SAPK1c (Homo sapiens, UniProt P45983). Conditions: read-out: Residual activity JNK/SAPK1c. The procedure:
as §1, §2

In assay [10] the target is Lck (Homo sapiens, UniProt P06239). Conditions: read-out: Residual activity Lck. The procedure:
as §1, §2

Assay [11] concerns the target MAPKAP-K1a (Homo sapiens, UniProt Q15418). Conditions: read-out: Residual activity MAPKAP-K1a. The procedure:
as §1, §2

Assay [12] addresses MAPKAP-K2 (Homo sapiens, UniProt P49137). Conditions: read-out: Residual activity MAPKAP-K2. The procedure: as §1, §2
For assay [13], the target named is MKK1 (Homo sapiens, UniProt Q02750). Conditions: read-out: Residual activity MKK1. The method, then: as §1, §2
Assay [14] deals with MSK1 (Homo sapiens, UniProt O75582). Conditions: read-out: Residual activity MSK1. The procedure: as §1, §2
Assay [15] has as its target NEK6 (Homo sapiens, UniProt Q9HC98). The conditions noted are these: read-out: Residual activity NEK6. The procedure:
as §1, §2

Assay [16] has as its target T2, PDK1 (Homo sapiens, UniProt O15530).
T2 sequence (O15530 1-556): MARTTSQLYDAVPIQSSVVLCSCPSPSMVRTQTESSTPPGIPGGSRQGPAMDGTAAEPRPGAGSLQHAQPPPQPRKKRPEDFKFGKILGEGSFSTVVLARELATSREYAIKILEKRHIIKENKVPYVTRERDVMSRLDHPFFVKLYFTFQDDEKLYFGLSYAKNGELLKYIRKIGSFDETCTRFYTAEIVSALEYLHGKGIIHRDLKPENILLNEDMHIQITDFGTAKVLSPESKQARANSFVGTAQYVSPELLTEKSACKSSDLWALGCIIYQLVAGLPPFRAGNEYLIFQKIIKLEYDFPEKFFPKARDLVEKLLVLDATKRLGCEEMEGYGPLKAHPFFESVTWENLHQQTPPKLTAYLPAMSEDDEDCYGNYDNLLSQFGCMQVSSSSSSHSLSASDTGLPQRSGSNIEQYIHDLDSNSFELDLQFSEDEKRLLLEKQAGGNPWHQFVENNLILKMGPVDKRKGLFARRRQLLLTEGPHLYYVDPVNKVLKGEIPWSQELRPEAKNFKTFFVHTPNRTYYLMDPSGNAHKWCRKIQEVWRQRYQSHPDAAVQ
Conditions: read-out: Residual activity PDK1. The method, then: as §1, §2

Assay [17] has as its target PHK (Oryctolagus cuniculus, UniProt P00518). The conditions noted are these: read-out: Residual activity PHK. The method, then:
as §1, §2

The target of assay [18] is PKA (Homo sapiens, UniProt P17612). The conditions noted are these: read-out: Residual activity PKA. The method, then:
as §1, §2

For assay [19], the system named is PKB?ph. Conditions: 10 μM compound; percentage of the activity measured in the absence of inhibitors. The procedure:
as §1, §2

Assay [20] concerns the target PKCa (Homo sapiens, UniProt P17252). The conditions noted are these: read-out: Residual activity PKCa. The procedure: as §1, §2
Assay [21] addresses ROCK-II (Homo sapiens, UniProt O75116). Conditions: read-out: Residual activity ROCK-II. The procedure:
as §1, §2

In assay [22] the target is SAPK2b/p38β2 (Homo sapiens, UniProt Q15759). The conditions noted are these: read-out: Residual activity SAPK2b/p38β2. The method, then:
as §1, §2

Assay [23] concerns p70 S6K. The conditions noted are these: 10 μM compound; percentage of the activity measured in the absence of inhibitors. The method, then:
as §1, §2

Lck, sequence (P06239 whole entry, species assumed): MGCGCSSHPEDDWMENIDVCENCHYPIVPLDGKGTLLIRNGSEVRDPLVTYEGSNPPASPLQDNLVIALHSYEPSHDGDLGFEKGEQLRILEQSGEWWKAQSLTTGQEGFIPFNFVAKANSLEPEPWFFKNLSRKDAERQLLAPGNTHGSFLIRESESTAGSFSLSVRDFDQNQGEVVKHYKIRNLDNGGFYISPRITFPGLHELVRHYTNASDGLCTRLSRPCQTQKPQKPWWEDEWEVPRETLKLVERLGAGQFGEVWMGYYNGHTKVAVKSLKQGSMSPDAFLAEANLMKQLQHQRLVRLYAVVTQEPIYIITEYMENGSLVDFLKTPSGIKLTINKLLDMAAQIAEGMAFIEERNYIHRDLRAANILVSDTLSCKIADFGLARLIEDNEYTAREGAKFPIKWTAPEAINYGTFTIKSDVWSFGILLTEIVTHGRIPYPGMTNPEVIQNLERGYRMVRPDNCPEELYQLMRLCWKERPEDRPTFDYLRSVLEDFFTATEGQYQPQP
MAPKAP-K2, sequence (P49137 whole entry, species assumed): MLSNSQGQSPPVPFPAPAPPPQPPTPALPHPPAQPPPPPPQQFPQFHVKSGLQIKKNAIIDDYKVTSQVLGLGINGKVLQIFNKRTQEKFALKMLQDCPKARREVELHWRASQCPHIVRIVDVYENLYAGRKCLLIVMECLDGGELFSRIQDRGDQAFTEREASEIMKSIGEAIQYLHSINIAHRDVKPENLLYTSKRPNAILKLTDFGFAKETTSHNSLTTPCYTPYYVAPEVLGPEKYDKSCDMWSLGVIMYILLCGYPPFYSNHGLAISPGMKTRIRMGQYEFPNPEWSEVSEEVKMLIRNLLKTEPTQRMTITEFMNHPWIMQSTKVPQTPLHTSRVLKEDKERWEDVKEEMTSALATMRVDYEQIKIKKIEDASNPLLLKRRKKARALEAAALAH
MAPKAP-K1a, sequence (Q15418 whole entry, species assumed): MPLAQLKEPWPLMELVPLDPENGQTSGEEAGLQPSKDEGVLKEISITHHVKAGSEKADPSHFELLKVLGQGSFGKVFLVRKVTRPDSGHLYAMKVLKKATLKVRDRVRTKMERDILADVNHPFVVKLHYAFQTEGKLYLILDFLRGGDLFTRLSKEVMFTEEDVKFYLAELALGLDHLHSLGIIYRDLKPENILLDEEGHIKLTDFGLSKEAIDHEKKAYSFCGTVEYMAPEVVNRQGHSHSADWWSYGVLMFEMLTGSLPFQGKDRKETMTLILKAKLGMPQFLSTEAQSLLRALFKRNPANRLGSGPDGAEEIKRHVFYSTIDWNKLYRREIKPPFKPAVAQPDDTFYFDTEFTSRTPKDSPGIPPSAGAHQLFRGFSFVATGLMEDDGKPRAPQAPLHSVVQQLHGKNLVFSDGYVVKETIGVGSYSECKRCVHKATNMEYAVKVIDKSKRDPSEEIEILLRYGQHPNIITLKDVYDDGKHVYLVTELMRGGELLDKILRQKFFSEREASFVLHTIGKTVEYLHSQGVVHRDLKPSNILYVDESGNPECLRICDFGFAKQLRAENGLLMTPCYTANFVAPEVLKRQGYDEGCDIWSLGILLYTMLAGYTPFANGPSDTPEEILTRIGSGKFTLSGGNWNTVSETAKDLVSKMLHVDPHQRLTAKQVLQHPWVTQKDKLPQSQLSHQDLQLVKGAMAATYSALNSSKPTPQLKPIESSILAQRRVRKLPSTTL
CK2, sequence (P68400 whole entry): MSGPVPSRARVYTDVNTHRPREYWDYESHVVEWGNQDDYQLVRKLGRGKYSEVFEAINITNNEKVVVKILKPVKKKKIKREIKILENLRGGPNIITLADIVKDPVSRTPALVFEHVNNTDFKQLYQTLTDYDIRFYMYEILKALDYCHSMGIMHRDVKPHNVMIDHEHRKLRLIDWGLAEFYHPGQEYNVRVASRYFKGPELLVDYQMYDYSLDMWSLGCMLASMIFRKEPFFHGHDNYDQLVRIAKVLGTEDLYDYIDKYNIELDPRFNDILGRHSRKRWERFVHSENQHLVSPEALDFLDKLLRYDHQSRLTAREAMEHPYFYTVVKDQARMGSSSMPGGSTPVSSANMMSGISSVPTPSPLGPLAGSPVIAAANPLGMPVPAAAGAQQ
ROCK-II, sequence (O75116 whole entry, species assumed): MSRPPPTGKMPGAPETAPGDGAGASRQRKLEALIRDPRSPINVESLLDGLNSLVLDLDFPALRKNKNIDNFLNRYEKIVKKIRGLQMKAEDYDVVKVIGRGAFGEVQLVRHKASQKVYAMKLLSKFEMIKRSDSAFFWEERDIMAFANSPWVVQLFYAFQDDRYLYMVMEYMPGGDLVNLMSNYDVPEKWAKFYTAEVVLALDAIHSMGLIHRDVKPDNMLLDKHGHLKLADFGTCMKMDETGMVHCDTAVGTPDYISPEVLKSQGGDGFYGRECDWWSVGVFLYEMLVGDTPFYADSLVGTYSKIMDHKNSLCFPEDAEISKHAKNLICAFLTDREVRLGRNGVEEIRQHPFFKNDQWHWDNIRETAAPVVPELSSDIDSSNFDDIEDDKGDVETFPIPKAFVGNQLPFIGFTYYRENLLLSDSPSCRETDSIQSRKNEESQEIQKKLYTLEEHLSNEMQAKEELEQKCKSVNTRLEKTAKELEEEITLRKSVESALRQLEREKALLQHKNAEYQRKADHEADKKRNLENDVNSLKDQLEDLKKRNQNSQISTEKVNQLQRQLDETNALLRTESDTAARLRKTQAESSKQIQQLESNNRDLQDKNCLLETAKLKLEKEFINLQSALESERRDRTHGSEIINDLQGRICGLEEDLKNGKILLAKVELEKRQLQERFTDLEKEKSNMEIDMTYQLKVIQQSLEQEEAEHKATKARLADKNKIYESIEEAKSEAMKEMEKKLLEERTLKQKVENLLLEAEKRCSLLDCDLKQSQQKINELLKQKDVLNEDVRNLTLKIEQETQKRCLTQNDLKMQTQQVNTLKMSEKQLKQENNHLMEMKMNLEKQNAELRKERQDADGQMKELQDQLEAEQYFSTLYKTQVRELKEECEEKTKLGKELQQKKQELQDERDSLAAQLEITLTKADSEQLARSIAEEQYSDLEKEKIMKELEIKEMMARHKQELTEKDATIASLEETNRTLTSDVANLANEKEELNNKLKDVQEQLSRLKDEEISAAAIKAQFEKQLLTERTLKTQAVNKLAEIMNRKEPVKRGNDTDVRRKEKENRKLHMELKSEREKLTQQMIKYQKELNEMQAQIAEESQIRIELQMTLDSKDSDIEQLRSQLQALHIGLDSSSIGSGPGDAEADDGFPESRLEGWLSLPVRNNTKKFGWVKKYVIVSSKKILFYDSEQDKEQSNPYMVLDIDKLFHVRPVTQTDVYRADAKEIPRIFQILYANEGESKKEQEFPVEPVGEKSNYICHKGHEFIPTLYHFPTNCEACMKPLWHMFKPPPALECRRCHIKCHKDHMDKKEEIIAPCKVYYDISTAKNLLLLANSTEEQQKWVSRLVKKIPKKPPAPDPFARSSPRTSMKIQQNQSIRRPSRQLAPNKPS
SAPK2b/p38β2, sequence (Q15759 whole entry): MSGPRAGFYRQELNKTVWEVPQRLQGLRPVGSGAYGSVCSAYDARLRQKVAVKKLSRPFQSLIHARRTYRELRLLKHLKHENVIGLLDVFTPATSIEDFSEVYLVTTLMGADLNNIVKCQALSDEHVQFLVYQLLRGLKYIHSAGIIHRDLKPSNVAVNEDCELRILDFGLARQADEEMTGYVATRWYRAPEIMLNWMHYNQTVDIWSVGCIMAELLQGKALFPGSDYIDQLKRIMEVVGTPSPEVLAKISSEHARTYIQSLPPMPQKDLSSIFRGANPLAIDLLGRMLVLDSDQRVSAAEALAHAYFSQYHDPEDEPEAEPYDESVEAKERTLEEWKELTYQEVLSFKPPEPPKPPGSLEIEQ
GSK3b, sequence (P49841 whole entry, species assumed): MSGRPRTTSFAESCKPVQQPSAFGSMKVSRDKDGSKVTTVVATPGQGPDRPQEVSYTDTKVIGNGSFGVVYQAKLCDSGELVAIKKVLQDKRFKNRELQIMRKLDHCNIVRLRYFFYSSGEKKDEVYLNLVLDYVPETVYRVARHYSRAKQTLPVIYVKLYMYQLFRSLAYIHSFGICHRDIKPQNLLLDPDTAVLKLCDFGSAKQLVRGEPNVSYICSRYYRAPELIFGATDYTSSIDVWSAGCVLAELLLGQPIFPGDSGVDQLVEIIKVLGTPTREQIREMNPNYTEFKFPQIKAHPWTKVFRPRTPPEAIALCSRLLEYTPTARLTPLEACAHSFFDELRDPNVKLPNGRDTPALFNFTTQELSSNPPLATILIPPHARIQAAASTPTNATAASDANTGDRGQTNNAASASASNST
NEK6, sequence (Q9HC98 whole entry, species assumed): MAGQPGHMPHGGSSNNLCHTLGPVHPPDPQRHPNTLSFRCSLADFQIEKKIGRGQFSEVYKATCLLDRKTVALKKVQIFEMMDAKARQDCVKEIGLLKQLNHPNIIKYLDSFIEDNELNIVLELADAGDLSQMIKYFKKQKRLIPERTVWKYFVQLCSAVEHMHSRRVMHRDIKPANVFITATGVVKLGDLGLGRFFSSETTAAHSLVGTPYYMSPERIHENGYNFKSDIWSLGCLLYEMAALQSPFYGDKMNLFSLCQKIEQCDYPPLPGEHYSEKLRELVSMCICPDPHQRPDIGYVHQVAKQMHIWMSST
MKK1, sequence (Q02750 whole entry, species assumed): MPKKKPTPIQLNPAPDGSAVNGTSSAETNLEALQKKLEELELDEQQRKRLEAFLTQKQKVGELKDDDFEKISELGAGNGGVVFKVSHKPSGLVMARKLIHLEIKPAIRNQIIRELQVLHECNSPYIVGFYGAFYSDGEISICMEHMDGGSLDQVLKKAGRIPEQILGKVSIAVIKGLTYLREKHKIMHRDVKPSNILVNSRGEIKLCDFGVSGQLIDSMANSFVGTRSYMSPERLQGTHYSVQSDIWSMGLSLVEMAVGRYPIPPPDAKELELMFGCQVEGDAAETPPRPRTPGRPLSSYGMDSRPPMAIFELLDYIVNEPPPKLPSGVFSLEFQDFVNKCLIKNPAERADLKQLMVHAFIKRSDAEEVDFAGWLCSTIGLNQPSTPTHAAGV

With `CC1=C(C2=C(C)C(=O)c3c(c(C=O)c(O)c(O)c3C(C)C)C2=O)C(=O)c2c(C=O)c(O)c(O)c(C(C)C)c2C1=O` [Gossypolone, gossypolone, reference compound], the “Residual activity AMPK” value in [1] was 66%. Moreover, the remaining activity at 10 µM in assay [2] is 90%; in assay [3] it was 24%; in [5] it was 79%; in assay [6], 64%; in assay [7], 27%; in assay [8], 43%. In addition, the remaining activity at 10 µM in assay [9] worked out at 86%; in assay [10] it was 60%; in assay [11], 55%; in assay [12] it was 28%; in assay [13] it was 76%; in [14] it was 85%. Further, the remaining activity at 10 µM in assay [15] is 89%; in assay [16] it was 51%; in assay [17], 21%; in assay [18], 69%; in assay [20], 78%; in assay [21] it was 54%. Also, the remaining activity at 10 µM in assay [22] came to 102%. The “Residual activity CK1” value in assay [4] worked out at 64%. Besides, the “Residual activity PKB?ph” value in assay [19] was 53%. The “Residual activity p70 S6K” value in assay [23] came to 35%.
